{"source": "patent US20260363251A1", "about": "(priority 2022, published 2026)", "key": {"Fusarium virguliforme": {"test_system": "Fusarium virguliforme", "experiment": "Seed treatment, soilborne Fusarium virguliforme in soybean in the greenhouse (Example 4.2)", "settings": "FS500, 40 g ai per 100 kg seeds; disease index vs infected control"}, "Fusarium avenaceum": {"test_system": "Fusarium avenaceum", "type": "in vivo", "settings": "1 d preventive, 220 L/ha, 125 g/ha, 14DAI"}, "Mycosphaerella fijiensis": {"test_system": "Mycosphaerella fijiensis", "experiment": "Treatment of black Sigatoka on banana (Table 10)", "type": "in vivo", "settings": "1 d preventive, 400 L/ha, 75 g/ha, 63DAI, + 0.9% Orchex 796 + 0.1% Emulsogen M"}, "Fusarium graminearum": {"test_system": "Fusarium graminearum", "type": "in vivo", "settings": "1 d preventive, 220 L/ha, 125 g/ha, 7DAI"}}}
{"smiles": "CON(C(=O)c1cn(C)nc1C(F)F)C(C)Cc1c(Cl)cc(Cl)cc1Cl", "note": "(stereo not shown) [Pydiflumetofen]", "values": [{"measurement": "activity (%)", "setting": "Fusarium virguliforme", "result": 89, "unit": "%"}, {"measurement": "disease symptom reduction (%) vs. Untreated", "setting": "Fusarium avenaceum", "result": 96, "unit": "%"}, {"measurement": "disease symptom reduction (%) vs. Untreated", "setting": "Mycosphaerella fijiensis", "result": 97, "unit": "%"}, {"measurement": "disease symptom reduction (%) vs. Untreated", "setting": "Fusarium graminearum", "result": 94, "unit": "%"}]}
